Laboratory results published in paper PMC5398914 (Nature, 2017).

Molecular target: T1, OxsB + OxsA (OxsA/OxsB) (Priestia megaterium, UniProt O24770)
T1 sequence (O24770 1-744): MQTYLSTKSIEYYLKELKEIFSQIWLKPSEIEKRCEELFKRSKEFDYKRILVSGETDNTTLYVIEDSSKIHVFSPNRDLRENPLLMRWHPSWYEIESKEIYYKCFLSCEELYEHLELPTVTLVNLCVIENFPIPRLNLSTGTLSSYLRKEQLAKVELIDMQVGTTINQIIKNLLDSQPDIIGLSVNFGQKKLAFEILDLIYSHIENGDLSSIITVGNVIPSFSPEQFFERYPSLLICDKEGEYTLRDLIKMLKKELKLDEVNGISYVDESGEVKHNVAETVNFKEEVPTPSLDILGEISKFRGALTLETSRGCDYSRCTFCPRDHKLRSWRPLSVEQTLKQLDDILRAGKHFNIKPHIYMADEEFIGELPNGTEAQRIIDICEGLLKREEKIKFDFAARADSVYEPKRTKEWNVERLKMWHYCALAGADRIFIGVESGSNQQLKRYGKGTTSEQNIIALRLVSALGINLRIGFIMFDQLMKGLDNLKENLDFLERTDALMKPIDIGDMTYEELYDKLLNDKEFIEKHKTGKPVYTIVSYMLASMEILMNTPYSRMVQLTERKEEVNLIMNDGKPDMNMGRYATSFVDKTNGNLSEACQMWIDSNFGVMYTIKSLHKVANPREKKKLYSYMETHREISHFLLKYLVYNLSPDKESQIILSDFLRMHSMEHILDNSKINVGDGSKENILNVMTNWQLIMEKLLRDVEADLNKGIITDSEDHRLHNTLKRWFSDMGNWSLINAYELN
Experiment: HPLC product detection, MS and NMR
Assay type: biochemical
Details: AdoMet, HO-Cbl, MgCl2, DTT, NADPH / methyl viologen

Nc1ncnc2c1ncn2[C@H]1C[C@H](O)[C@@H](COP(=O)(O)O)O1 [dAMP]
HPLC product detection, MS and NMR: identify dAMP, dADP and dATP as OXT-A precursors
